Laboratory results reported in US20210161902A1, “EPICHAPEROME INHIBITOR THERAPY FOR TRAUMATIC BRAIN INJURY AND SEQUELAE THEREOF” (Samus Therapeutics, Inc, priority 2017, published 2021).

Biological target: Hsp90 such as brain Hsp90
Assay: EC50 for binding to Hsp90 such as brain Hsp90
Settings: concentration yielding half-maximal binding to Hsp90 such as brain Hsp90, or halving binding in a competition assay
Source text: Brain uptake may be indicative of binding of the epichaperome inhibitor to Hsp90 and preferably to brain Hsp90. Such binding assays may be carried out as described in published PCT application WO2008/005937.
BBB-permeable epichaperome inhibitors to be used in the methods provided herein may be further characterized by their EC50 for binding to Hsp90 such as brain Hsp90. (EC50, in this context, refers to the concentration of the inhibitor that yields half-maximal binding of the inhibitor to Hsp90 such as brain Hsp90, or alternatively if the measurement is performed in a competition assay it is the concentration of inhibitor at which the binding to Hsp90 is reduced by half.) Certain inhibitors may have an EC50 of 100 nM or less, including about 90 nM, about 80 nM, about 85 nM, about 70 nM, about 60 nM, about 50 nM, about 40 nM, about 30 nM, about 20 nM, about 10 nM, about 9 nM, about 8 nM, about 7 nM, about 6 nM, about 5 nM, about 4 nM, about 3 nM, about 2 nM, or about 1 nM. The EC50 might range from 0.1 to 10 nM, from 0.1 to 9 nM, from 0.1 to 8 nM, from 0.1 to 7 nM, from 0.1 to 6 nM, or from 0.1 to 5 nM. The EC50 might range from 0.1 to 20 nM, from 0.1 to 18 nM, from 0.1 to 15 nM, from 0.1 to 12 nM, or from 0.1 to 10 nM. In some instances, certain inhibitors have an EC50 of about 5-7 nM. […] In other instances, certain inhibitors have an EC50 of about 80-90 nM.

CC(C)(C)CNCCn1c(Sc2cc3c(cc2I)OCO3)nc2c(N)ncnc21 [Compound 1]
EC50: 6.9 nM
